Assay results as given in patent US8916536B2, “Bone-targeting bisphosphonate duplex drugs” (priority 2010, dated 2014).
Where a name gives a salt, the structure may show the parent alone.

What was measured:
[1] = Hydroxyapatite binding of nucleoside-BPs; format: physicochemical
Procedure: It is known that the BPs moiety of conjugates preserves its high affinity for the bone matrix even when coupled to a bulk residue^17,41 The high affinity to the bone matrix is based on the strong binding properties of BPs to hydroxyapatite^42, 43, 44. For this reasons, we analyzed the adsorption properties of 5-FdU-ale and 5-FdU to hydroxyapatite.
5-FdU (246 mg, 1 mmol) or 5-FdU-ale (475 mg) were dissolved in distilled water (100 ml). The A260-units of the obtained solution and the absorbance ratios of 250/260 and 280/260 were determined using an UV-spectrophotometer. After addition of solid hydroxyapatite as listed in Table 2 the obtained suspension was stirred at room temperature for 24 h. Then, an aliquot (1 ml) of the suspension was filtered through a sterile filter and the A260-units of the filtrate were measured. The amount of drug bound to hydroxyapatite was calculated on the basis of the decreased A260-units of the suspension.
(§1) A solution of 5-FdU-ale (475 mg) in 100 ml H2O was acidified to pH 2 by adding HCl and stirred at 50° C. for 24 h, followed by neutralization with solid sodium carbonate. UV-active degradation products were not detectable at 254 nm by TLC-analysis with CHCl3/MeOH (80:20) using silica gel plates. The hydroxyapatite binding of the pretreated 5-FdU-ale was analyzed as described above.

MALME-3M = test: NCI 60-cell line in vitro screen (SRB), growth percent; format: cell-based; conditions: Melanomas, 10 μM, 48 h incubation, 100% = growth without drug
HL-60 (TB) = test: as above; format: cell-based; conditions: Leukemia, 10 μM, 48 h incubation, 100% = growth without drug
HOP-62 = test: as above; format: cell-based; conditions: HOP-62, Non-small cell lung cancer; 10 μM, 48 h incubation; 100% = growth without drug
MDA-MB-435 = test: as above; format: cell-based; conditions: MDA-MB-435, Melanomas; 10 μM, 48 h incubation; 100% = growth without drug
SF-268 = test: as above; format: cell-based; conditions: SF-268, CNS cancer; 10 μM, 48 h incubation; 100% = growth without drug
NCI-H322M = test: as above; format: cell-based; conditions: Non-small cell lung cancer, 10 μM, 48 h incubation, 100% = growth without drug
60 tumor cell lines = test: NCI 60-cell line in vitro screen, whole panel; format: cell-based; conditions: 48/59 cell lines; 10 μM, 48 h incubation
OVCAR-3 = test: NCI 60-cell line in vitro screen (SRB), growth percent; format: cell-based; conditions: OVCAR-3, Ovarian cancers; 10 μM, 48 h incubation; 100% = growth without drug
CAKI-1 = test: as above; format: cell-based; conditions: CAKI-1, Renal cancers; 10 μM, 48 h incubation; 100% = growth without drug
[2] = Stability in acidic conditions (pH 2, 50° C., 24 h; TLC / UV ratio); format: physicochemical
Procedure: as §1
The binding study was also used for an indirect assessment of the stability of the nucleoside-BPs in acidic conditions. Binding was reduced by 13% compared to the untreated compound when a solution of 5-FdU-ale was acidified to pH 2 and kept at 50° C. during 24 h prior to the adsorption to hydroxyapatite. The unchanged A250/260 and 280/260 UV-ratio indicate that no cleavage of 5-FdU-ale into the monomer 5-FdU+ ale occurs during treatment with hydroxyapatite under the used conditions.
Thus, the absence of UV-active compounds allows to conclude that 5-FdU-ale is very stable in acidic conditions.

SNB-75 = test: NCI 60-cell line in vitro screen (SRB), growth percent; format: cell-based; conditions: SNB-75, CNS cancer; 10 μM, 48 h incubation; 100% = growth without drug
EKVX = test: as above; format: cell-based; conditions: Non-small cell lung cancer, 10 μM, 48 h incubation, 100% = growth without drug
SF-539 = test: as above; format: cell-based; conditions: SF-539, CNS cancer; 10 μM, 48 h incubation; 100% = growth without drug
[3] = tested on: 6 different tumor cell lines; conditions: 6 days of incubation, in average, read-out: concentration for 50% growth inhibition; cited from earlier work
[4] = hydroxyapatite 7 g, drug in 100 ml water, 24 h room temperature
[5] = hydroxyapatite 5 g, drug in 100 ml water, 24 h room temperature
[6] = hydroxyapatite 7 g, acid pretreatment (pH 2, 50° C., 24 h, then neutralized)

O=c1[nH]c(=O)n([C@H]2C[C@H](O)[C@@H](CO)O2)cc1F [5-FdU, 2′-deoxy-5-fluorouridine, reference compound]
Bound drug % [1, 4]: 15%
Bound drug mg [1, 4]: 37 mg

O=c1nc(NCCCC(O)(P(=O)(O)O)P(=O)(O)O)c(F)cn1C1CC(O)C(CO)O1 (centres unmarked) [6a, N^4-[butyl-(4-hydroxy-4-phosphono)phosphonate]-5-fluoro-2′-deoxycytidine]
reduction of binding compared to the untreated compound ([1]; acidified to pH 2, 50° C., 24 h prior to adsorption): 13%
Bound drug % [1, 5]: 41%
Bound drug mg [1, 5]: 195 mg
adsorption to hydroxyapatite relative to 5-FdU ([1]; hydroxyapatite 7 g): approximately sixfold higher
Bound drug % [1, 6]: 74%
Bound drug mg [1, 6]: 352 mg
Bound drug % [1, 4]: 87%
Bound drug mg [1, 4]: 414 mg
Growth [%] (MALME-3M): 89.24%
Growth [%] (HL-60 (TB)): 61.75%
Growth [%] (HOP-62): 93.16%
Growth [%] (MDA-MB-435): 86.95%
Growth [%] (SF-268): 86.64%
Growth [%] (NCI-H322M): 88.84%
growth inhibition in the other cell lines (60 tumor cell lines): did not show any growth inhibition
Growth [%] (OVCAR-3): 88.34%
Growth [%] (CAKI-1): 79.14%
cleavage into the monomers 5-FdU + ale ([2]; during treatment with hydroxyapatite, unchanged A250/260 and 280/260 UV-ratio): no cleavage
stability in acidic conditions ([2]; pH 2, 50° C., 24 h, TLC of supernatant, no UV-active compounds): very stable
Growth [%] (SNB-75): 87.12%
Growth [%] (EKVX): 82.45%
Growth [%] (SF-539): 94.79%

O=P(O)(O)C(Cl)(Cl)P(=O)(O)O [Clondronat]
IC50 [3]: 1 to 1410 µM

NCCCC(O)(P(=O)(O)O)P(=O)(O)O [alendronate, (4-Amino-1-hydroxy-1-phosphonobutyl)phosphonate monosodium salt*3H20]
IC50 [3]: 11 to 1860 µM
